# pIC50: −log10 of the molar value.
# Target: T1, recombinant LRRK2 kinase (Homo sapiens, UniProt Q5S007)
# T1 construct: purchased Signal Chem, Richmond, BC, Canada
# Assay: LRRK2 kinase inhibition (Kinase-Glo luminescence)
# Format: biochemical
# Conditions: IC50 grade; 25 μmol/L ATP, LRRKtide, 30° C. 2 hours; read-out: Enzyme activity LRRK2
# Experimental: Upon completion of the reaction, an equal amount of Kinase-Glo (Promega, Madison, Wis.) solution was added thereto, followed by reaction for 40 minutes. A detection solution was added thereto, followed by further reaction at room temperature for 30 minutes. Then, IC50 of kinase was calculated by measuring the amount of luciferase using a microplate ELISA reader (Bio-Tek).
# T1 sequence (Q5S007 whole entry): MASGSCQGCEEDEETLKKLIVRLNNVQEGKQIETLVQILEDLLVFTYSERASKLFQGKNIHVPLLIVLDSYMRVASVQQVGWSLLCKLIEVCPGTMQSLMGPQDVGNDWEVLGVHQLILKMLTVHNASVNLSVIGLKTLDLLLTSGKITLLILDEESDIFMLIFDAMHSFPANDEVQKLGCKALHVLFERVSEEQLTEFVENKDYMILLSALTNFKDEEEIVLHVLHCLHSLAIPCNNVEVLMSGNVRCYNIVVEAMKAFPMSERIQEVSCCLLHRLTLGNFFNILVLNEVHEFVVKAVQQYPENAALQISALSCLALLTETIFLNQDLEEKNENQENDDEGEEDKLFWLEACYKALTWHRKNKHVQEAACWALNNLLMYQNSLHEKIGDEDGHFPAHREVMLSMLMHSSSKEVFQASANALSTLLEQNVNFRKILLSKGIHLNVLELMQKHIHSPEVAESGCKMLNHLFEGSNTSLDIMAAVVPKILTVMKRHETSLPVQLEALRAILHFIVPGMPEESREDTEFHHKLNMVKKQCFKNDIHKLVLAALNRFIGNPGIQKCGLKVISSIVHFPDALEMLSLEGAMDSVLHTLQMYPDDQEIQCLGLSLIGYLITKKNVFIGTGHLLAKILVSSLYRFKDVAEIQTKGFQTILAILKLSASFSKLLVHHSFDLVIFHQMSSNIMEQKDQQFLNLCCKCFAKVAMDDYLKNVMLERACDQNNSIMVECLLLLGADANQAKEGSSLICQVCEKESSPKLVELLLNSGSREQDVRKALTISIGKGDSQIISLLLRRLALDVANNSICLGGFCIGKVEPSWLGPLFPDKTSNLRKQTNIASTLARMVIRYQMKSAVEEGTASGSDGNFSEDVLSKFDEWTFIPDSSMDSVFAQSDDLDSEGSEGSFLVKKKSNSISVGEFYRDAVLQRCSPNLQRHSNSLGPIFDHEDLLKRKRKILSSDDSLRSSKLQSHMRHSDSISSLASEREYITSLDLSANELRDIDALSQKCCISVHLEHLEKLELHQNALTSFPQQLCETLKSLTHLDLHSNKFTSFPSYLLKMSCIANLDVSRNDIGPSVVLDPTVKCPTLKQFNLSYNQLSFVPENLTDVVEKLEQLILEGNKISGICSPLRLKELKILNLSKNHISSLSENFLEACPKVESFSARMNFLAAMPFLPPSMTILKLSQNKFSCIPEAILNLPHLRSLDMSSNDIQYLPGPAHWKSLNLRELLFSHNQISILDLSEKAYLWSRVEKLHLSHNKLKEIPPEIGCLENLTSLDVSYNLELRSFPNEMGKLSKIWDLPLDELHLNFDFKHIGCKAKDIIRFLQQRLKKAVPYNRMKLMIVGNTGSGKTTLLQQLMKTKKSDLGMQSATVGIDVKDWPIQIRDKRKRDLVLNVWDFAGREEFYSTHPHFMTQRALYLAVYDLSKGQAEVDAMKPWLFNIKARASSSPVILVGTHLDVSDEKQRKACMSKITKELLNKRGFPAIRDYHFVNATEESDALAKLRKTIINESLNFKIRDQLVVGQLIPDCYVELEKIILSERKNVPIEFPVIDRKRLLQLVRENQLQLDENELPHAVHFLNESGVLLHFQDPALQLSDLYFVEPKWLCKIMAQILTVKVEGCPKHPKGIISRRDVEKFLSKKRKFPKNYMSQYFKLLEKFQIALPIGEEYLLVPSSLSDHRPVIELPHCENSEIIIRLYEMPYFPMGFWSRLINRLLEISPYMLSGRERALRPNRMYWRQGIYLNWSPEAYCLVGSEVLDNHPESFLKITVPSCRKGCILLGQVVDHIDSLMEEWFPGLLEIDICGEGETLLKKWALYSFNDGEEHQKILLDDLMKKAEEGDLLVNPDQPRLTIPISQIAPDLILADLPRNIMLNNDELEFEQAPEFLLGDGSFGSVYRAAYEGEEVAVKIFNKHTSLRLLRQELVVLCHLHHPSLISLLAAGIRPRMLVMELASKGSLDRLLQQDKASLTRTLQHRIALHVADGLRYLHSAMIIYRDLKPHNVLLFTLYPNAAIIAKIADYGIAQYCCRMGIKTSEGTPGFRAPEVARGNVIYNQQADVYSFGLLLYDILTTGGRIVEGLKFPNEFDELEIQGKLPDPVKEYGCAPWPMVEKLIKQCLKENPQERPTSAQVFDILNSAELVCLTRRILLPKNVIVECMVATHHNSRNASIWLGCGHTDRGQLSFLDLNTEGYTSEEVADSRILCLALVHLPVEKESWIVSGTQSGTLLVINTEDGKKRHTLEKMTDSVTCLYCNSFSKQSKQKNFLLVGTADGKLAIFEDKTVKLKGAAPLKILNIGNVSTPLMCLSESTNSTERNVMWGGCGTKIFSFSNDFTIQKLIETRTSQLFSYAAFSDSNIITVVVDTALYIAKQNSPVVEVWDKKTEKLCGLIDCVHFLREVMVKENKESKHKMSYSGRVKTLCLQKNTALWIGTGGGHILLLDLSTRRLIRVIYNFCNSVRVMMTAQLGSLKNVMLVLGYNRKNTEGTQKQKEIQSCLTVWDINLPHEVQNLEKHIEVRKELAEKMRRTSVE
row,Compound,pIC50
1,"CNc1nc(Nc2ccc(C(=O)N3CCOCC3)cc2OC)nc2[nH]cc(C#N)c12 [Example 1, 2-((2-methoxy-4-(morpholine-4-carbonyl)phenyl)amino)-4-(methylamino)-7H-pyrrolo[2,3-d]pyrimidine-5-carbonitrile]",> 8.00
2,"CC1(Nc2nc(Nc3cnn([C@H]4CCN(C5COC5)C[C@@H]4F)c3Cl)nc3[nH]cc(C#N)c23)CC1 [Example 52, 2-((5-chloro-1-((3S,4S)-3-fluoro-1-(oxetane-3-yl)piperidine-4-yl)-1H-pyrazole-4-yl)amino)((1-methylcyclopropyl)amino)-7H-pyrrolo[2,3-d]pyrimidine-5-carbonitrile]",> 8.00
3,"CCNc1nc(Nc2ccc(C(=O)N3CCC(N4CCOCC4)CC3)cc2OC)nc2[nH]cc(C(F)(F)F)c12 [Example 104, (4-((4-(ethylamino)-5-(trifluoromethyl)-7H-pyrrolo[2,3-d]pyrimidine-2-yl)amino)-3-methoxyphenyl)(4-morpholinopiperidine-1-yl)methanone]",> 8.00

# Source: patent publication US11208412B2 (DAEGU-GYEONGBUK MEDICAL INNOVATION FOUNDATION, priority 2017, dated 2021)
